According to patent US11767319B2, “Crystalline forms of a selective c-kit kinase inhibitor” (Third Harmonic Bio, Inc., priority 2020, dated 2023):

What was measured:
Type in all cases: physicochemical
[1] = Hydration mapping starting with amorphous compound 1
Experimental: To establish the hydration map of compound 1, solutions with varying water activity (aw) were prepared and the aw was measured using a water activity meter. Table 13 below details the solvent systems investigated and their corresponding measured water activities.
To prepare amorphous material, 480 mg of Form A of compound 1 was weighed into a vial before being dissolved in 24 mL 1,4-dioxane. The resulting solution was then split evenly between 24 vials before being placed in the chamber of a freeze dryer at −50° C. to completely freeze the samples. The samples were then freeze dried overnight (approx. 18 h) and fluffy off-white solids were recovered. A small sub-sample of solid from one vial was analyzed by XRPD to confirm that amorphization had occurred. Using the other 23 vials of amorphous material, 1 mL of the solutions prepared above was added to each vial to prepare slurries. As before, where solutions were observed a brief manual agitation, an additional ˜10 to 20 mg of amorphous material was added to prepare a slurry. Additional solid was added to the 2-MeTHF, acetone/water (aw of 0.14 and 0.28), methanol/water (aw of 0.11) and acetonitrile/water (aw of 0.11) samples. All slurries were then agitated for 72 h at 25° C. After 72 h, aliquots of solid were isolated via centrifugal filtration and analyzed by XRPD.

[2] = Ethanol/hydrocarbon mixtures slurry study
Experimental: Using the methods described above for the Form A input and amorphous input experiments, 5×20 mg of Form A slurries and 5×20 mg of amorphous input slurries were prepared by adding 1 mL of solvent (see Table 16 below) to each vial and the resulting slurries were agitated for 24 h at 25° C. After 24 h, aliquots of solid were isolated via centrifugal filtration and analysed by XRPD.

[3] = Form investigation in buffered media; settings: for XRPD Pattern / pH (24 h): 24 h at 25° C.
Experimental: To investigate the polymorphic landscape of compound 1 in buffered systems, 5×20 mg of Form A slurries and 5×20 mg of amorphous slurries (amorphous material prepared using the method described in the above hydration mapping experiments) were prepared by adding 1 mL of buffer to each vial and the resulting slurries were agitated for 24 h at 25° C. The pH was measured post-buffer addition and after 24 h agitation. After 24 h, aliquots of solid were isolated via centrifugal filtration and analysed by XRPD.

Structure (SMILES): Cc1ccc(-c2noc([C@H]3C[C@@H]3F)n2)cc1NC(=O)c1cnc2ccccn12 [Amorphous Compound 1, N-(5-(5-((1R,2S)-2-fluorocyclopropyl)-1,2,4-oxadiazol-3-yl)-2-methylphenyl)imidazo[1,2-a]pyridine-3-carboxamide]
- XRPD pattern observed, 72 h ([1]; 2-MeTHF, aw 0.0378, 25° C.): Forms A, H^A and D
- XRPD pattern observed, 72 h ([1]; Acetone/Water, aw 0.1363, 25° C.): Form H^A
- XRPD pattern observed, 72 h ([1]; Acetone/Water, aw 0.2621, 25° C.): Form H^A
- XRPD pattern observed, 72 h ([1]; Acetone/Water, aw 0.5455, 25° C.): Form H^A
- XRPD pattern observed, 72 h ([1]; Acetone/Water, aw 0.7082, 25° C.): Form H^A
- XRPD pattern observed, 72 h ([1]; Acetone/Water, aw 0.9439, 25° C.): Form H^A and possibly Form C
- XRPD pattern observed, 72 h ([1]; EtOH/Heptane, aw 0.0300, 25° C.): Form E
- XRPD pattern observed, 72 h ([1]; EtOH/Water, aw 0.1580, 25° C.): Form H^A
- XRPD pattern observed, 72 h ([1]; EtOH/Water, aw 0.3377, 25° C.): Form H^A
- XRPD pattern observed, 72 h ([1]; EtOH/Water, aw 0.4986, 25° C.): Form H^A
- XRPD pattern observed, 72 h ([1]; EtOH/Water, aw 0.7600, 25° C.): Form A and Form H^A and additional peaks
- XRPD pattern observed, 72 h ([1]; EtOH/Water, aw 0.9005, 25° C.): Form A and Form H^A and additional peaks
- XRPD pattern observed, 72 h ([1]; MeCN/Water, aw 0.1060, 25° C.): Form H^A
- XRPD pattern observed, 72 h ([1]; MeCN/Water, aw 0.3664, 25° C.): Form H^A
- XRPD pattern observed, 72 h ([1]; MeCN/Water, aw 0.5573, 25° C.): Form H^A
- XRPD pattern observed, 72 h ([1]; MeCN/Water, aw 0.7300, 25° C.): Form H^A
- XRPD pattern observed, 72 h ([1]; MeCN/Water, aw 0.8946, 25° C.): Form H^A
- XRPD pattern observed, 72 h ([1]; MeOH/Water, aw 0.0963, 25° C.): Form H^A
- XRPD pattern observed, 72 h ([1]; MeOH/Water, aw 0.3242, 25° C.): Form H
- XRPD pattern observed, 72 h ([1]; MeOH/Water, aw 0.5145, 25° C.): Form H^A
- XRPD pattern observed, 72 h ([1]; MeOH/Water, aw 0.6965, 25° C.): Form H^A
- XRPD pattern observed, 72 h ([1]; MeOH/Water, aw 0.9294, 25° C.): Form C
- XRPD pattern observed, 72 h ([1]; Water/2-MeTHF, aw 0.5286, 25° C.): Form H^A
- XRPD pattern observed ([2]; EtOH/Cyclohexane (50:50% v/v), aw 0.025, 24 h at 25° C.): Form E
- XRPD pattern observed ([2]; EtOH/Dodecane (50:50% v/v), aw 0.024, 24 h at 25° C.): Form H^A
- XRPD pattern observed ([2]; EtOH/Hexane (50:50% v/v), aw 0.018, 24 h at 25° C.): Form E
- XRPD pattern observed ([2]; EtOH/Methylcyclohexane (50:50% v/v), aw 0.019, 24 h at 25° C.): Form E
- XRPD pattern observed ([2]; EtOH/Octane (50:50% v/v), aw 0.019, 24 h at 25° C.): Form E
- XRPD Pattern ([3]; NaOH (0.2M)): Form C
- XRPD Pattern ([3]; pH 1.2 (HCl—KCl)): HCl Salt Form
- XRPD Pattern ([3]; pH 4.5 (acetate)): Form F
- XRPD Pattern ([3]; pH 6.8 (phosphate)): Form C
- XRPD Pattern ([3]; pH 8 (PBS)): Form H^B
- pH (Post-Buffer Addition) ([3]; slurry in NaOH (0.2M)): 11.97
- pH (24 h) ([3]; slurry in NaOH (0.2M)): 11.87
- pH (Post-Buffer Addition) ([3]; slurry in pH 1.2 (HCl—KCl)): 1.21
- pH (24 h) ([3]; slurry in pH 1.2 (HCl—KCl)): 1.21
- pH (Post-Buffer Addition) ([3]; slurry in pH 4.5 (acetate)): 4.53
- pH (24 h) ([3]; slurry in pH 4.5 (acetate)): 4.55
- pH (Post-Buffer Addition) ([3]; slurry in pH 6.8 (phosphate)): 6.85
- pH (24 h) ([3]; slurry in pH 6.8 (phosphate)): 6.87
- pH (Post-Buffer Addition) ([3]; slurry in pH 8 (PBS)): 8.01
- pH (24 h) ([3]; slurry in pH 8 (PBS)): 8.11
